Source: patent US10807986B2, “Fused pyrimidine compound or salt thereof” (TAIHO PHARMACEUTICAL CO., LTD., priority 2016, dated 2020)

Settings: mouse, microsomes, 0.5 h, 1 μM
Protocol: Solutions of the test compounds in DMSO/acetonitrile (the final concentration of each test compound was 1 μM, the final concentration of DMSO was 0.01%, and the final concentration of acetonitrile was 1%) were individually added to a liver microsome mixture solution (mouse liver microsome with a final concentration of 0.25 mg/mL, a potassium phosphate buffer with a final concentration of 100 mM, and magnesium chloride with a final concentration of 3 mM), and each mixture was pre-incubated at 37° C. for 5 minutes. […] After incubation at 37° C. for 30 minutes, a double amount of ethanol was added thereto to terminate the reaction, thereby obtaining post-reaction samples. A double amount of ethanol was added to each of the remaining mixture solutions, and a NADPH-generating system was further added thereto, thereby obtaining pre-reaction samples. The pre-reaction samples and post-reaction samples were centrifuged at 2000×g, and their supernatant was filtered through a glass filter. Each filtrate was then introduced into LC-MS/MS, and MS/MS peaks of the test compounds were detected. From the ratio of the post-reaction MS/MS peak to the pre-reaction MS/MS peak of the test compounds, the percentage of the remaining test compounds (remaining %) was calculated.

**Q.** Which “Remaining (%)” value does the source give for `C/C=C/c1ccc(NC(=O)c2c(OCC)n(C3(C)CC3)c3ncnc(N)c23)cc1` [Example 117, (E)-4-amino-6-ethoxy-7-(1-methylcyclopropyl)-N-(4-(prop-1-en-1-yl)phenyl)-7H-pyrrolo[2,3-d]pyrimidine-5-carboxamide] here?
**A.** 53%
